Experimental data taken from patent US10526352B2, “Tricyclic benzoxaborole compounds and uses thereof” (GlaxoSmithKline Intellectual Property (No.2) Limited, priority 2013, dated 2020).

Tested on: M. tuberculosis clinical isolates
Test: MIC against clinical strains (BACTEC MGIT 960 System)
Format: cell-based
Settings: Mycobacterium tuberculosis
[1] = strain 123, resistant clinical isolate, resistance HSERZKTACp
[2] = strain 139, resistant clinical isolate, resistance HSERZKTACp
[3] = strain 141, resistant clinical isolate, resistance HRT
[4] = strain 167, resistant clinical isolate, resistance HSRZ
[5] = strain 175, resistant clinical isolate, resistance S
[6] = strain 198, resistant clinical isolate, resistance H
[7] = strain 242, resistant clinical isolate, resistance H
[8] = strain 330, resistant clinical isolate, resistance HSR (Tables 2B, 2D)
[9] = strain 1672, resistant clinical isolate, resistance HSRZ
[10] = strain 1819, resistant clinical isolate, resistance HSRZ

Row | SMILES | MIC [1] [µM] | MIC [2] [µM] | MIC [3] [µM] | MIC [4] [µM] | MIC [5] [µM] | MIC [6] [µM] | MIC [7] [µM] | MIC [8] [µM] | MIC [9] [µM] | MIC [10] [µM] | also measured
1 | Cl.NC[C@H]1OB2OCCOc3ccc(Br)c1c32 [Example 2, (S)-(3-bromo-7,8-dihydro-2H-1,6,9-trioxa-9a-borabenzo[cd]azulen-2-yl)methanamine hydrochloride] | 0.08 | 0.08 | 0.08 | 0.08 | 0.08 | 0.08 | 0.08 | 0.08 | 0.08 | 0.04 | –
2 | Cl.NC[C@H]1OB2OCCOc3ccc(Cl)c1c32 [Example 4, (S)-(3-chloro-7,8-dihydro-2H-1,6,9-trioxa-9a-borabenzo[cd]azulen-2-yl)methanamine hydrochloride] | 0.16 | 0.08 | 0.08 | 0.08 | 0.08 | 0.08 | 0.08 | 0.08 | 0.08 | ≤ 0.02 | MIC (strain 106, resistant clinical isolate, resistance HR): 0.16 µM; MIC (strain 192, resistant clinical isolate, resistance HS): 0.31 µM; MIC (strain 201, resistant clinical isolate, resistance HRE): 0.08 µM; MIC (strain 202, resistant clinical isolate, resistance S): 0.08 µM; MIC (strain 254, resistant clinical isolate, resistance H): 0.16 µM; MIC (strain 277, resistant clinical isolate, resistance H): 0.08 µM; MIC (strain 297, resistant clinical isolate, resistance HSR): 0.16 µM; MIC (strain 330, resistant clinical isolate, resistance HS): 0.08 µM; MIC (strain 330, resistant clinical isolate, resistance RSR): 0.04 µM; MIC (strain 409, resistant clinical isolate, resistance HR): 0.08 µM; MIC (strain 415, resistant clinical isolate, resistance HRT): 0.08 µM; MIC (strain 514, resistant clinical isolate, resistance HSRT): 0.08 µM; MIC (strain 562, resistant clinical isolate, resistance HSERZKTA): 0.08 µM; MIC (strain 605, resistant clinical isolate, resistance HSERZACp): 0.16 µM; MIC (strain 670, resistant clinical isolate, resistance HRZ): 0.04 µM; MIC (strain 709, resistant clinical isolate, resistance S): 0.08 µM; MIC (strain 732, resistant clinical isolate, resistance S): 0.08 µM; MIC (strain CR, resistant clinical isolate, resistance HSERZ): 0.31 µM
3 | NC[C@H]1OB2OCCOc3ccc(Cl)c1c32 [Example G4-Cl] | – | – | – | – | – | – | – | – | – | – | MIC (for more than 85 clinical isolate strains of 97 tested (sensitive and resistant)): < 1 µM
